Columns and labels:
[1] = tested on: prostate carcinoma (PC-3) cells; test: SRB cytotoxicity assay, PC-3; assay type: cell-based, human; conditions: for IC50: Homo sapiens, PC-3, SRB assay, 72 h, mean ± SD of three experiments; for Selectivity Index PC-3: SI = IC50 on WI-38/IC50 on PC-3
Procedure: In the present work, sulforhodamine B (SRB) colorimetric assay was done to evaluate the cytotoxic activity of the synthesized 3-cyano pyridines 4a–4e, 5a–5e, and 6a–6e on three human cancer cell lines: prostate carcinoma (PC-3), breast cancer (MDA-MB-231) and hepatocellular carcinoma (HepG2) cell lines. 5-FU was used as a standard drug for comparison.
Human cancer cells were obtained from Nawah Scientific Inc. (Mokatam, Cairo, Egypt). Cells were maintained in DMEM media containing […] streptomycin, 100 units/mL penicillin, and 10% heat-inactivated fetal bovine serum in humified, 5% (v/v) CO2 atmosphere at 37 °C.
Cell viability was estimated using the SRB assay. Aliquots of 100 µL cell suspension (5 × 10^3 cells) in 96-well plates were incubated in complete media for 24 h. Cells were treated with a second aliquot of 100 µL media containing various concentrations of the tested compounds (0.01, 0.1, 1, 10, and 100 μM). After 72 h, cells were fixed by replacing media with 15 µL of 10% TCA and then incubated at 4 °C for 1 h. After that, TCA solution was removed, and the cells were washed 5 times with distilled water. Aliquots of 70 µL SRB solution (0.4% w/v) were added and incubated in a dark place at room temperature for 10 min. Plates were washed 3 times with 1% acetic acid and allowed to air dry overnight. Then, 150 µL of TRIS (10 mM) was added to dissolve protein-bound SRB stain. The absorbance was measured at 540 nm using BMG LABTECH®-FLUO star Omega microplate reader (Ortenberg, Germany).

[2] = tested on: MDA-MB-231 cells; test: Annexin V-FITC/PI apoptosis assay; assay type: cell-based, human; conditions: for total increase in apoptotic and necrotic cells compared to control: MDA-MB-231, Annexin V-FITC; for Percent of cell death: Apoptosis Late / Percent of cell death: Necrosis / Percent of cell death: Apoptosis Early / Percent of cell death: Total: MDA-MB-231, IC50 concentration, 48 h; for Percent of cell death: Apoptosis Late: control 0.31; for Percent of cell death: Necrosis: control 0.47; for Percent of cell death: Apoptosis Early: control 1.09; for Percent of cell death: Total: control 1.87
Procedure: So, inhibiting survivin should result in increased spontaneous apoptosis in tumor cells. In this study, the apoptotic potential of 5c and 5e was further assessed using Annexin V-FITC assay.
MDA-MB-231 cells were plated in 24-well tissue culture plates. […] After 48 h, cells that floated were collected from the medium. The adherent cells were separated using 0.05% trypsin. After that, a 10% FBS medium was added for inactivating trypsin. Following slow pipetting, the centrifugation of cells was done for 5 min at 1500× g. Then, the supernatant was discarded, and cells were then stained with double annexin V-fluorescein isothiocyanate in addition to propidium iodide (PI) staining following the manufacturer’s directions. Analysis of the cells was investigated using a FACScan flow cytometer.

[3] = target: T1, survivin (Homo sapiens, UniProt O15392); test: Western blotting of survivin in MDA-MB-231 cells; assay type: cell-based; conditions: for survivin expression (Western blot, in words): MDA-MB-231, 1, 5 and 10 µM
T1 construct: Western blotting analysis in MDA-MB-231cells treated with different concentrations of both compounds; endogenous in cells; host or cells: MDA-MB-231
Procedure: (§1) The ability of the 2-oxo-3-cyano pyridines 5c and 5e to cause an inhibition of survivin was evaluated by the use of Western blotting analysis in MDA-MB-231cells treated with different concentrations of both compounds (1, 5, and 10 µM). […] Furthermore, to test the effect of these compounds on some other IAP family proteins, the Western plot of Livin, XIAP, and C-IAP1 proteins was performed (Figure 6). […] The Supplementary Material Figures S40 and S41 contain western blotting analysis for 5c and 5e.
(§2) MDA-MB-231 cancer cells were incubated with 5c and 5e at different concentrations (1, 5, and 10 µM) for 48 h. Afterwards, the medium was detached, and the cells were washed using PBS (10 mmol/L, pH 7.4). Then, the cells were incubated on cold lysis buffer (50 mmol/L Tris–HCl, 150 mmol/L NaCl, 1 mmol/L EGTA, 1 mmol/L EDTA, 20 mmol/L NaF, […], 0.5% NP40, 1% Triton X-100, 1 mmol/L PMSF (pH 7.4)) and a freshly added cocktail inhibitor (Inhibitor Cocktail Set III, Calbiochem, La Jolla, CA) above ice for 30 min. Then, MDA-MB-231 cells were collected and centrifuged at 12,000× g for 15 min.
(§3) XIAp, Survivin, Livin, and cIAP1anti-mouse, anti-rabbit secondary antibodies, and GAPDH were purchased from Sigma-Aldrich, whereas the gel was obtained from BioRad. Polyacrylamide gels were moved to a nitrocellulose membrane in order to block in buffer (7% nonfat dry milk/1% Tween 20; in 20 mmol/L TBS (pH 7.6)) for 1 h and incubated for 2 h at room temperature with the suitable primary antibody in blocking buffer or overnight at 4 °C; then, they were incubated with secondary antibody HRP conjugate. Finally, the blots analysis was done using the imaging system.

[4] = tested on: Livin; test: Western blotting of Livin in MDA-MB-231 cells; assay type: cell-based, human; conditions: for Livin protein level (Western blot, in words): MDA-MB-231, 1, 5 and 10 µM
Procedure: as §1, §2, §3

[5] = tested on: C-IAP1; test: Western blotting of C-IAP1 in MDA-MB-231 cells; assay type: cell-based, human; conditions: for C-IAP1 protein level (Western blot, in words): MDA-MB-231, 1, 5 and 10 µM
Procedure: as §1, §2, §3

T1 sequence (O15392 whole entry): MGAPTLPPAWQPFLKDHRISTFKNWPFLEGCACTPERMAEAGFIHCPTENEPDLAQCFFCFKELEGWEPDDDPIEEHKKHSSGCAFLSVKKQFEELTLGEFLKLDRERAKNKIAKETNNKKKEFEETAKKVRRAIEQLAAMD

Structure (SMILES): N#Cc1c(-c2ccc(Cl)cc2)cc(-c2ccc(OCc3ccc(F)cc3)cc2)[nH]c1=O [Compound 5c, 4-(4-Chlorophenyl)-6-(4-((4-fluorobenzyl)oxy)phenyl)-2-oxo-1,2-dihydropyridine-3-carbonitrile]
- IC50 [1]: 14.4 ± 0.38 µM
- Selectivity Index PC-3 [1]: 6.33
- cytotoxicity relative to 5-FU ([1]; cell line not specified (PC-3, MDA-MB-231, HepG2 tested)): nearly half that of 5-FU
- total increase in apoptotic and necrotic cells compared to control [2]: 8.72 fold
- Percent of cell death: Apoptosis Late [2]: 8.67%
- Percent of cell death: Necrosis [2]: 2.58%
- Percent of cell death: Apoptosis Early [2]: 5.07%
- Percent of cell death: Total [2]: 16.32%
- Survivin band % ([3]; MDA-MB-231, 1µM): 38.3%
- Survivin band Area ([3]; MDA-MB-231, 1µM): 2261
- Survivin band Height ([3]; MDA-MB-231, 1µM): 156
- Survivin band Width ([3]; MDA-MB-231, 1µM): 26
- Survivin band % ([3]; MDA-MB-231, 5µM): 25.9%
- Survivin band Area ([3]; MDA-MB-231, 5µM): 1674
- Survivin band Height ([3]; MDA-MB-231, 5µM): 137
- Survivin band Width ([3]; MDA-MB-231, 5µM): 16
- Survivin band % ([3]; MDA-MB-231, 10µM): 15.6%
- Survivin band Area ([3]; MDA-MB-231, 10µM): 1028
- Survivin band Height ([3]; MDA-MB-231, 10µM): 121
- Survivin band Width ([3]; MDA-MB-231, 10µM): 13
- survivin expression (Western blot, in words) [3]: remarkable inhibition of survivin expression
- LIVIN band % ([4]; MDA-MB-231, 1µM): 20.2%
- LIVIN band Area ([4]; MDA-MB-231, 1µM): 1305
- LIVIN band Height ([4]; MDA-MB-231, 1µM): 134
- LIVIN band Width ([4]; MDA-MB-231, 1µM): 22
- LIVIN band % ([4]; MDA-MB-231, 5µM): 13.4%
- LIVIN band Area ([4]; MDA-MB-231, 5µM): 793
- LIVIN band Height ([4]; MDA-MB-231, 5µM): 84
- LIVIN band Width ([4]; MDA-MB-231, 5µM): 17
- LIVIN band % ([4]; MDA-MB-231, 10µM): 9.1%
- LIVIN band Area ([4]; MDA-MB-231, 10µM): 514
- LIVIN band Height ([4]; MDA-MB-231, 10µM): 66
- LIVIN band Width ([4]; MDA-MB-231, 10µM): 17
- Livin protein level (Western blot, in words) [4]: decreased the levels of these proteins
- CIAP1 band % ([5]; MDA-MB-231, 1µM): 39.7%
- CIAP1 band Area ([5]; MDA-MB-231, 1µM): 2565
- CIAP1 band Height ([5]; MDA-MB-231, 1µM): 192
- CIAP1 band Width ([5]; MDA-MB-231, 1µM): 24
- CIAP1 band % ([5]; MDA-MB-231, 5µM): 34.1%
- CIAP1 band Area ([5]; MDA-MB-231, 5µM): 1941
- CIAP1 band Height ([5]; MDA-MB-231, 5µM): 187
- CIAP1 band Width ([5]; MDA-MB-231, 5µM): 22
- CIAP1 band % ([5]; MDA-MB-231, 10µM): 31.9%
- CIAP1 band Area ([5]; MDA-MB-231, 10µM): 1884
- CIAP1 band Height ([5]; MDA-MB-231, 10µM): 186
- CIAP1 band Width ([5]; MDA-MB-231, 10µM): 18
- C-IAP1 protein level (Western blot, in words) [5]: decreased the levels of these proteins

Structure (SMILES): COc1ccc(-c2cc(-c3ccc(OCc4ccc(F)cc4)cc3)[nH]c(=O)c2C#N)cc1 [Compound 5e, 6-(4-((4-Fluorobenzyl)oxy)phenyl)-4-(4-methoxyphenyl)-2-oxo-1,2-dihydropyridine-3-carbonitrile]
- IC50 [1]: 4.46 ± 0.51 µM
- Selectivity Index PC-3 [1]: 22.99
- activity relative to 5-FU, PC-3 ([1]; cytotoxicity compared with 5-FU): twice the activity of 5-FU
- total increase in apoptotic and necrotic cells compared to control [2]: 10.41 fold
- Percent of cell death: Apoptosis Late [2]: 10.91%
- Percent of cell death: Necrosis [2]: 2.38%
- Percent of cell death: Apoptosis Early [2]: 6.18%
- Percent of cell death: Total [2]: 19.47%
- Survivin band % ([3]; MDA-MB-231, 1µM): 31.4%
- Survivin band Area ([3]; MDA-MB-231, 1µM): 1368
- Survivin band Height ([3]; MDA-MB-231, 1µM): 120
- Survivin band Width ([3]; MDA-MB-231, 1µM): 22
- Survivin band % ([3]; MDA-MB-231, 5µM): 25%
- Survivin band Area ([3]; MDA-MB-231, 5µM): 1079
- Survivin band Height ([3]; MDA-MB-231, 5µM): 108
- Survivin band Width ([3]; MDA-MB-231, 5µM): 19
- Survivin band % ([3]; MDA-MB-231, 10µM): 19.1%
- Survivin band Area ([3]; MDA-MB-231, 10µM): 1062
- Survivin band Height ([3]; MDA-MB-231, 10µM): 105
- Survivin band Width ([3]; MDA-MB-231, 10µM): 18
- survivin expression (Western blot, in words) [3]: remarkable inhibition of survivin expression
- LIVIN band % ([4]; MDA-MB-231, 1µM): 25.7%
- LIVIN band Area ([4]; MDA-MB-231, 1µM): 2085
- LIVIN band Height ([4]; MDA-MB-231, 1µM): 136
- LIVIN band Width ([4]; MDA-MB-231, 1µM): 33
- LIVIN band % ([4]; MDA-MB-231, 5µM): 16.6%
- LIVIN band Area ([4]; MDA-MB-231, 5µM): 907
- LIVIN band Height ([4]; MDA-MB-231, 5µM): 68
- LIVIN band Width ([4]; MDA-MB-231, 5µM): 27
- LIVIN band % ([4]; MDA-MB-231, 10µM): 9.8%
- LIVIN band Area ([4]; MDA-MB-231, 10µM): 330
- LIVIN band Height ([4]; MDA-MB-231, 10µM): 44
- LIVIN band Width ([4]; MDA-MB-231, 10µM): 14
- Livin protein level (Western blot, in words) [4]: decreased the levels of these proteins
- CIAP1 band % ([5]; MDA-MB-231, 1µM): 18.2%
- CIAP1 band Area ([5]; MDA-MB-231, 1µM): 987
- CIAP1 band Height ([5]; MDA-MB-231, 1µM): 98
- CIAP1 band Width ([5]; MDA-MB-231, 1µM): 24
- CIAP1 band % ([5]; MDA-MB-231, 5µM): 12.6%
- CIAP1 band Area ([5]; MDA-MB-231, 5µM): 766
- CIAP1 band Height ([5]; MDA-MB-231, 5µM): 86
- CIAP1 band Width ([5]; MDA-MB-231, 5µM): 23
- CIAP1 band % ([5]; MDA-MB-231, 10µM): 10.2%
- CIAP1 band Area ([5]; MDA-MB-231, 10µM): 570
- CIAP1 band Height ([5]; MDA-MB-231, 10µM): 79
- CIAP1 band Width ([5]; MDA-MB-231, 10µM): 22
- C-IAP1 protein level (Western blot, in words) [5]: decreased the levels of these proteins
